Assay results published in ChEMBL document CHEMBL4507285, “Data for DCP probe MRL-SYKi” (2021).

Assays:
[1] = test system: Mast/stem cell growth factor receptor Kit (Homo sapiens), P10721 [A829P]; conditions: Compound concentration 100.0 nM
[2] = target: Mast/stem cell growth factor receptor Kit (Homo sapiens) (UniProt P10721); conditions: Compound concentration 100.0 nM
[3] = target: Epidermal growth factor receptor (Homo sapiens) (UniProt P00533); conditions: Compound concentration 100.0 nM
[4] = target: Serine/threonine-protein kinase tousled-like 1 (Homo sapiens) (UniProt Q9UKI8); conditions: Compound concentration 100.0 nM
[5] = target: Sodium-dependent serotonin transporter (Homo sapiens) (UniProt P31645); conditions: Compound concentration 10.0 uM
Sodium-dependent serotonin transporter (Homo sapiens), sequence (P31645 whole entry, looked up): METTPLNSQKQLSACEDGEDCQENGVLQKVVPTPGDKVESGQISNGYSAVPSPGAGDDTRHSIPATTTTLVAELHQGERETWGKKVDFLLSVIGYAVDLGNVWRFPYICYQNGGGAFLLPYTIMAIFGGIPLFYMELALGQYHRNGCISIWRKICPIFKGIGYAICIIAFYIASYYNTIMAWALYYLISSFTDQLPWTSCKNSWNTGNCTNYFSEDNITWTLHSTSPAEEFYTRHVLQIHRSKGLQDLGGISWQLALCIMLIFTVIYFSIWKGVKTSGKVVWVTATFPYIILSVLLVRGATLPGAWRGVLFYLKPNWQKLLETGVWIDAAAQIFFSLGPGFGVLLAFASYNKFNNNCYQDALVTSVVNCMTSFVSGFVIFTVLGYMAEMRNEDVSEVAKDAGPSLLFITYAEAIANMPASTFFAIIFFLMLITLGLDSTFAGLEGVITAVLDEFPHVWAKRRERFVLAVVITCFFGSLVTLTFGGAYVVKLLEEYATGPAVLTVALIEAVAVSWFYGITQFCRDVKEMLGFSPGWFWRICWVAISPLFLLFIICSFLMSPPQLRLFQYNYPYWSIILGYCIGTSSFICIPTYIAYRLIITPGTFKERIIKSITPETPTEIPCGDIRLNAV

[6] = test system: Tyrosine-protein kinase ABL1 (Homo sapiens), P00519 [H396P]; conditions: Compound concentration 100.0 nM
[7] = target: Serine/threonine-protein kinase LATS1 (Homo sapiens) (UniProt O95835); conditions: Compound concentration 100.0 nM
[8] = target: 5-hydroxytryptamine receptor 2B (Homo sapiens, UniProt P41595); conditions: Compound concentration 10.0 uM
5-hydroxytryptamine receptor 2B, sequence (P41595 whole entry): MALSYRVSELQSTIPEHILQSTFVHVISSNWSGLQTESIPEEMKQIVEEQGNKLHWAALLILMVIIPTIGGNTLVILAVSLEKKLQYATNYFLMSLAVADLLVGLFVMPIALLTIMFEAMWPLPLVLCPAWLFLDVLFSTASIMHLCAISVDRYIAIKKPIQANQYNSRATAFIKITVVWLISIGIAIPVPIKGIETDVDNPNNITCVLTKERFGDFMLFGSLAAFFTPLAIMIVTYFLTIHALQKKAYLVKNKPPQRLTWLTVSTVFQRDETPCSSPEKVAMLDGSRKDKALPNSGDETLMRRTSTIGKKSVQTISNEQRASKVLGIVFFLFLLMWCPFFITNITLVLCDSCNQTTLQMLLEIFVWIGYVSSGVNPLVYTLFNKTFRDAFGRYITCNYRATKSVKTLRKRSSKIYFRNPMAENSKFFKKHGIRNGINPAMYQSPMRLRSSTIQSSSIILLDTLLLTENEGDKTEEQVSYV

[9] = target: Rhodopsin kinase GRK1 (Homo sapiens) (UniProt Q15835); conditions: Compound concentration 100.0 nM
[10] = target: Calcium/calmodulin-dependent protein kinase kinase 2 (Homo sapiens) (UniProt Q96RR4); conditions: Compound concentration 100.0 nM
[11] = target: cGMP-dependent protein kinase 1 (Homo sapiens) (UniProt Q13976); conditions: Compound concentration 100.0 nM
[12] = target: Myosin-IIIb (Homo sapiens) (UniProt Q8WXR4); conditions: Compound concentration 100.0 nM
[13] = target: Interferon-induced, double-stranded RNA-activated protein kinase (Homo sapiens) (UniProt P19525); conditions: Compound concentration 100.0 nM
[14] = target: Serine/threonine-protein kinase 24 (Homo sapiens) (UniProt Q9Y6E0); conditions: Compound concentration 100.0 nM
[15] = target: Serine/threonine-protein kinase 36 (Homo sapiens) (UniProt Q9NRP7); conditions: Compound concentration 100.0 nM
[16] = target: Casein kinase I isoform alpha (Homo sapiens) (UniProt P48729); conditions: Compound concentration 100.0 nM
[17] = target: BDNF/NT-3 growth factors receptor (Homo sapiens) (UniProt Q16620); conditions: Compound concentration 100.0 nM
[18] = target: Serine/threonine-protein kinase MRCK beta (Homo sapiens) (UniProt Q9Y5S2); conditions: Compound concentration 100.0 nM
[19] = target: Serine/threonine-protein kinase ULK1 (Homo sapiens) (UniProt O75385); conditions: Compound concentration 100.0 nM
[20] = test system: Hepatocyte growth factor receptor (Homo sapiens), P08581 [M1250T]; conditions: Compound concentration 100.0 nM
[21] = target: Ribosomal protein S6 kinase alpha-1 (Homo sapiens) (UniProt Q15418); conditions: Compound concentration 100.0 nM
[22] = target: Bone morphogenetic protein receptor type-2 (Homo sapiens) (UniProt Q13873); conditions: Compound concentration 100.0 nM
[23] = target: Insulin receptor-related protein (Homo sapiens) (UniProt P14616); conditions: Compound concentration 100.0 nM
Insulin receptor-related protein (Homo sapiens), sequence (P14616 27-742 limits assumed): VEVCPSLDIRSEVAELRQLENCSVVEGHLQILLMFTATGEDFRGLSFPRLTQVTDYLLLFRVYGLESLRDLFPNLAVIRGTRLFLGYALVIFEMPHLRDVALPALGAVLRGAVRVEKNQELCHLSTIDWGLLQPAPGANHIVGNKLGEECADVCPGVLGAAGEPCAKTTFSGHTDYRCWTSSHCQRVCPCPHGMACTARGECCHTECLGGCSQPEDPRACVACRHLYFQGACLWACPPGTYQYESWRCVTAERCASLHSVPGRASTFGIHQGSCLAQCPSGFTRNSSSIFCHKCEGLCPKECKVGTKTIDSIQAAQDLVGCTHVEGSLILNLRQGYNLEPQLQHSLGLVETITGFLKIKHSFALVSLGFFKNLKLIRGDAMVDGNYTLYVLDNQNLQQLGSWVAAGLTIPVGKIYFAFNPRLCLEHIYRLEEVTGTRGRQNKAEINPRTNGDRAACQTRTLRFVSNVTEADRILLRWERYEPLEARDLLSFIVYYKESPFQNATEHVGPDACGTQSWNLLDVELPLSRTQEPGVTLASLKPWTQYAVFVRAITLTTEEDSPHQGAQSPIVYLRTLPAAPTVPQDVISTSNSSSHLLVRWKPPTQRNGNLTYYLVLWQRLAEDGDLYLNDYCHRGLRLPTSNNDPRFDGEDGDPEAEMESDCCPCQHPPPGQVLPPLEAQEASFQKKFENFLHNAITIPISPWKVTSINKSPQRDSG
Insulin receptor-related protein (Homo sapiens), sequence (P14616 747-1297 limits assumed): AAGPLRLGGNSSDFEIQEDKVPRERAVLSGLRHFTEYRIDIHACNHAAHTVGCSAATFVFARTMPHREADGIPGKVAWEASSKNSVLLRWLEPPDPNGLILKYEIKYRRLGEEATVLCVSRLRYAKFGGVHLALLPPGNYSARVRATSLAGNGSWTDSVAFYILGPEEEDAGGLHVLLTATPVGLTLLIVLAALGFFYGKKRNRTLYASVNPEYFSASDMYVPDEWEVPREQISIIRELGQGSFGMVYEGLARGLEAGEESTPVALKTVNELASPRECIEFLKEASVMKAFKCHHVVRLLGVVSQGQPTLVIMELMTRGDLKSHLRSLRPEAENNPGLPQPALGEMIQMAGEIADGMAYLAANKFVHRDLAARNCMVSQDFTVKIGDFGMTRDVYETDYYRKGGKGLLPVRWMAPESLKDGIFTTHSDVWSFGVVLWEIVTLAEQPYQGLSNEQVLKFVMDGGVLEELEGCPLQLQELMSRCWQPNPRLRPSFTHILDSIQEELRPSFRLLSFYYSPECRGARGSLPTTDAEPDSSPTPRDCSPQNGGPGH

[24] = target: RAC-beta serine/threonine-protein kinase (Homo sapiens) (UniProt P31751); conditions: Compound concentration 100.0 nM
[25] = target: Mitogen-activated protein kinase kinase kinase 6 (Homo sapiens) (UniProt O95382); conditions: Compound concentration 100.0 nM
[26] = test system: Epidermal growth factor receptor (Homo sapiens), P00533 [L861Q]; conditions: Compound concentration 100.0 nM
[27] = test system: Mast/stem cell growth factor receptor Kit (Homo sapiens), P10721 [V559D,V654A]; conditions: Compound concentration 100.0 nM
[28] = test system: Phosphatidylinositol 4,5-bisphosphate 3-kinase catalytic subunit alpha isoform (Homo sapiens), P42336 [E542K]; conditions: Compound concentration 100.0 nM
[29] = target: Histamine H4 receptor (Homo sapiens) (UniProt Q9H3N8); conditions: Compound concentration 10.0 uM
[30] = target: 5-hydroxytryptamine receptor 1D (Homo sapiens) (UniProt P28221); conditions: Compound concentration 10.0 uM
5-hydroxytryptamine receptor 1D (Homo sapiens), sequence (P28221 whole entry): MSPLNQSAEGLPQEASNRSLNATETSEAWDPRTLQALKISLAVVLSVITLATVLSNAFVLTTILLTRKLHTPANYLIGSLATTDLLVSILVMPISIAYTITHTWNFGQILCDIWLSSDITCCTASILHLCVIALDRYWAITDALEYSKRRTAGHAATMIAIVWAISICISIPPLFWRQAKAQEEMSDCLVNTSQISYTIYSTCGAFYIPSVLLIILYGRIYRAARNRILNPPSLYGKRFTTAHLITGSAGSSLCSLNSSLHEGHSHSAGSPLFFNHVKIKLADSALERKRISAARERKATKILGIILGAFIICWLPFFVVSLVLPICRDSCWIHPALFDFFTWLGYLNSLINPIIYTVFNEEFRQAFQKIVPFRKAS

[31] = target: STE20-like serine/threonine-protein kinase (Homo sapiens) (UniProt Q9H2G2); conditions: Compound concentration 100.0 nM
[32] = test system: Phosphatidylinositol 4,5-bisphosphate 3-kinase catalytic subunit alpha isoform (Homo sapiens), P42336 [C420R]; conditions: Compound concentration 100.0 nM
[33] = target: Serine/threonine-protein kinase PknB (Mycobacterium tuberculosis) (UniProt P9WI81); conditions: Compound concentration 100.0 nM
[34] = target: Cytoplasmic tyrosine-protein kinase BMX (Homo sapiens) (UniProt P51813); conditions: Compound concentration 100.0 nM
[35] = target: 5-hydroxytryptamine receptor 2C (Homo sapiens) (UniProt P28335); conditions: Compound concentration 10.0 uM
[36] = test system: Proto-oncogene tyrosine-protein kinase receptor Ret (Homo sapiens), P07949 [V804L]; conditions: Compound concentration 100.0 nM
Proto-oncogene tyrosine-protein kinase receptor Ret (Homo sapiens), P07949 [V804L], sequence (P07949 whole entry V804L): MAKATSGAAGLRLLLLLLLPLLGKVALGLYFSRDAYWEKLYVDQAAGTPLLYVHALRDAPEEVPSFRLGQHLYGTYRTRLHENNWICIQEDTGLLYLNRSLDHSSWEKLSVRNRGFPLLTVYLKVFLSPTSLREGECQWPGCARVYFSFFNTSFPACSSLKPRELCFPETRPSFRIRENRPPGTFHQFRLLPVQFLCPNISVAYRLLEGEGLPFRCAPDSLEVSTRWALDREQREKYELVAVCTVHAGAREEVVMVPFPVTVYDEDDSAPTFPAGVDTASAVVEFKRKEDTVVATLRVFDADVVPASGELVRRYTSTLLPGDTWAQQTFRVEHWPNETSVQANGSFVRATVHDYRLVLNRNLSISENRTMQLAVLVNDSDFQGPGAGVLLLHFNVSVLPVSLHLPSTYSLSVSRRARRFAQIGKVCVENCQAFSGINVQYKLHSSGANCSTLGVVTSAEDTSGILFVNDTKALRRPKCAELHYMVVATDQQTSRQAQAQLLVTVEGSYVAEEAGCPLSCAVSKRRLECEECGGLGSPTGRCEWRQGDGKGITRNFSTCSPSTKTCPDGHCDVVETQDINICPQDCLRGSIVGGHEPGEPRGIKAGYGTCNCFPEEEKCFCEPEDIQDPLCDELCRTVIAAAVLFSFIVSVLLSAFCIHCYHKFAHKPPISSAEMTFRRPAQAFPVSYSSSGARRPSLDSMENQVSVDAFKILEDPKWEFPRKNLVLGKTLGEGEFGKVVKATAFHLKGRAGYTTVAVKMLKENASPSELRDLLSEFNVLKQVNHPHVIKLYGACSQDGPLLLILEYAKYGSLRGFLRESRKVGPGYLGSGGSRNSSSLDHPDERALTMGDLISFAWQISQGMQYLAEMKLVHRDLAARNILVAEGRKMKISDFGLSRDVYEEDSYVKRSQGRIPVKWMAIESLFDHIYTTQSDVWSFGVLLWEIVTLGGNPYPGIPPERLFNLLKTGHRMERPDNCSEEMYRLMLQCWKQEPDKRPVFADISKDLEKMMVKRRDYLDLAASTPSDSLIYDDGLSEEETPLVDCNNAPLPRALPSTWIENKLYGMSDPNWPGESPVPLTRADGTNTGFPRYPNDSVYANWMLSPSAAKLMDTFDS

[37] = target: Calcium/calmodulin-dependent protein kinase type 1B (Homo sapiens) (UniProt Q6P2M8); conditions: Compound concentration 100.0 nM
[38] = test system: Receptor-type tyrosine-protein kinase FLT3 (Homo sapiens), P36888 [UNDEFINED MUTATION]; conditions: Compound concentration 100.0 nM
[39] = target: Serine/threonine-protein kinase Nek5 (Homo sapiens) (UniProt Q6P3R8); conditions: Compound concentration 100.0 nM
Serine/threonine-protein kinase Nek5 (Homo sapiens), sequence (Q6P3R8 whole entry): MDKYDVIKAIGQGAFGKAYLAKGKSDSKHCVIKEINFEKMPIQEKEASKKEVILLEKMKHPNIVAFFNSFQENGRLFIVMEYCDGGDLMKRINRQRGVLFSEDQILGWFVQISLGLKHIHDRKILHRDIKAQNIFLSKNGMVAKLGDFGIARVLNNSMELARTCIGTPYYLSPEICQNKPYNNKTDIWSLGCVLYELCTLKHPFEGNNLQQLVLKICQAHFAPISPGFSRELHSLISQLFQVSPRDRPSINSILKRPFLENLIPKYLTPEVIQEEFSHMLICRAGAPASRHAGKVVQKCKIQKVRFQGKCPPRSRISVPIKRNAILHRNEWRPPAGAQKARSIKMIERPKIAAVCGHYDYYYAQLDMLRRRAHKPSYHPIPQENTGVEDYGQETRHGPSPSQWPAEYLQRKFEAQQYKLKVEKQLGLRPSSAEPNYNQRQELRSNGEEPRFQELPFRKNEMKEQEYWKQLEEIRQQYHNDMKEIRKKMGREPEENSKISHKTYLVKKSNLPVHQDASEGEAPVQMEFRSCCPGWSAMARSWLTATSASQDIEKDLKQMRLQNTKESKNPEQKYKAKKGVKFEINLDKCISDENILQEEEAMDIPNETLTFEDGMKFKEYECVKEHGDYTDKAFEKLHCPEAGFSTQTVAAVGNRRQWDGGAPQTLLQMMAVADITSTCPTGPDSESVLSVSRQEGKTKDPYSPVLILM

[40] = target: Histamine H1 receptor (Homo sapiens) (UniProt P35367); conditions: Compound concentration 10.0 uM
[41] = target: Serine/threonine-protein kinase STK11 (Homo sapiens) (UniProt Q15831); conditions: Compound concentration 100.0 nM
Serine/threonine-protein kinase STK11 (Homo sapiens), sequence (Q15831 whole entry): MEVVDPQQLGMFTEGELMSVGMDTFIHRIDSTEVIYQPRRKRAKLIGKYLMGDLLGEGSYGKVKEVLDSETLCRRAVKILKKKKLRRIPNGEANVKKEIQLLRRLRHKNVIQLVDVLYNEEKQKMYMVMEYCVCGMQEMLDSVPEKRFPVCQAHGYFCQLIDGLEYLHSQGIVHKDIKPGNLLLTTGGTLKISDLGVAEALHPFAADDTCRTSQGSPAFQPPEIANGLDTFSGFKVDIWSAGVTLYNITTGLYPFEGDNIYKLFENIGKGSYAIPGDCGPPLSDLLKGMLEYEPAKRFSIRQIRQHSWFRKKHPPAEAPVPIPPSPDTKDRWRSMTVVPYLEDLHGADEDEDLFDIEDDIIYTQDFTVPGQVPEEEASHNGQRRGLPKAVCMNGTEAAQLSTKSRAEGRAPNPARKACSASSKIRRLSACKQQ

[42] = target: Proto-oncogene tyrosine-protein kinase ROS (Homo sapiens) (UniProt P08922); conditions: Compound concentration 100.0 nM
[43] = test system: Receptor-type tyrosine-protein kinase FLT3 (Homo sapiens), P36888 [R834Q]; conditions: Compound concentration 100.0 nM
[44] = target: Serine/threonine-protein kinase Nek7 (Homo sapiens) (UniProt Q8TDX7); conditions: Compound concentration 100.0 nM
[45] = target: Tyrosine-protein kinase receptor TYRO3 (Homo sapiens) (UniProt Q06418); conditions: Compound concentration 100.0 nM

Cc1ccc(-c2cnc([C@@]3(O)CC[C@H](C(=O)O)C(C)(C)C3)s2)cc1Nc1cccc(C(F)(F)F)n1 [MRL-SYKi-NC]
residual activity [1]: 61.5%
residual activity [2]: 100%
residual activity [3]: 69.4%
residual activity [4]: 100%
inhibition [5]: 15.7%
residual activity [6]: 87.2%
residual activity [7]: 100%
inhibition [8]: 77.9%
residual activity [9]: 82.1%
residual activity [10]: 91.5%
residual activity [11]: 77.5%
residual activity [12]: 100%
residual activity [13]: 75.8%
residual activity [14]: 100%
residual activity [15]: 95.5%
residual activity [16]: 94%
residual activity [17]: 67.2%
residual activity [18]: 91.6%
residual activity [19]: 73.1%
residual activity [20]: 89%
residual activity [21]: 100%
residual activity [22]: 54.9%
residual activity [23]: 86.1%
residual activity [24]: 100%
residual activity [25]: 100%
residual activity [26]: 98.5%
residual activity [27]: 100%
residual activity [28]: 87.4%
inhibition [29]: 8.06%
inhibition [30]: 16.5%
residual activity [31]: 93.6%
residual activity [32]: 85.3%
residual activity [33]: 86.7%
residual activity [34]: 100%
inhibition [35]: 4.21%
residual activity [36]: 100%
residual activity [37]: 95.9%
residual activity [38]: 100%
residual activity [39]: 100%
inhibition [40]: 9.09%
residual activity [41]: 70.8%
residual activity [42]: 91.5%
residual activity [43]: 70.5%
residual activity [44]: 75.7%
residual activity [45]: 100%

Cc1cc(Nc2nccc(C)n2)cc(-c2cnc([C@@]3(O)CC[C@H](C(=O)O)C(C)(C)C3)s2)c1 [MRL-SYKi]
residual activity [1]: 100%
residual activity [2]: 71.7%
residual activity [3]: 100%
residual activity [4]: 100%
inhibition [5]: 3.34%
residual activity [6]: 74.3%
residual activity [7]: 100%
inhibition [8]: 6.38%
residual activity [9]: 71.7%
residual activity [10]: 69.7%
residual activity [11]: 100%
residual activity [12]: 76.1%
residual activity [13]: 77.4%
residual activity [14]: 83.5%
residual activity [15]: 94.5%
residual activity [16]: 61.6%
residual activity [17]: 60.3%
residual activity [18]: 100%
residual activity [19]: 100%
residual activity [20]: 93.7%
residual activity [21]: 100%
residual activity [22]: 100%
residual activity [23]: 100%
residual activity [24]: 100%
residual activity [25]: 69.5%
residual activity [26]: 100%
residual activity [27]: 100%
residual activity [28]: 66.5%
inhibition [29]: 7.61%
inhibition [30]: 2.65%
residual activity [31]: 96.4%
residual activity [32]: 99.9%
residual activity [33]: 100%
residual activity [34]: 95.1%
inhibition [35]: 3.02%
residual activity [36]: 87%
residual activity [37]: 78.1%
residual activity [38]: 84.8%
residual activity [39]: 74.2%
inhibition [40]: 7.85%
residual activity [41]: 100%
residual activity [42]: 97%
residual activity [43]: 96.3%
residual activity [44]: 92.9%
residual activity [45]: 60.2%
